{"source": "patent US11661419B2", "about": "“Benzimidazole derivative compounds and uses thereof” (Pfizer Inc., priority 2019, dated 2023)", "key": {"[1]": {"tested_on": "IL-2 in activated CD4+ human T-cells", "assay": "IL-2 inhibition in supernatants from activated CD4+ human T-cells (cisbio HTRF)", "assay_type": "cell-based", "details": "T-cell; geometric mean of count n; CD3/CD28-expanded human CD4+ T cells stimulated with ImmunoCult, 20 to 24 hrs", "outline": "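Expanded human CD4+ T cells (30,000 cells/well) were pre-incubated with compound for 15 min, then stimulated with ImmunoCult (1:50 final) for 20 to 24 hrs at 37° C.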"}, "[2]": {"biological_target": "Tropomyosin receptor kinase A (TRKA, NTRK1) (Homo sapiens (Human), UniProt P04629)", "sequence (P04629 33-796)": "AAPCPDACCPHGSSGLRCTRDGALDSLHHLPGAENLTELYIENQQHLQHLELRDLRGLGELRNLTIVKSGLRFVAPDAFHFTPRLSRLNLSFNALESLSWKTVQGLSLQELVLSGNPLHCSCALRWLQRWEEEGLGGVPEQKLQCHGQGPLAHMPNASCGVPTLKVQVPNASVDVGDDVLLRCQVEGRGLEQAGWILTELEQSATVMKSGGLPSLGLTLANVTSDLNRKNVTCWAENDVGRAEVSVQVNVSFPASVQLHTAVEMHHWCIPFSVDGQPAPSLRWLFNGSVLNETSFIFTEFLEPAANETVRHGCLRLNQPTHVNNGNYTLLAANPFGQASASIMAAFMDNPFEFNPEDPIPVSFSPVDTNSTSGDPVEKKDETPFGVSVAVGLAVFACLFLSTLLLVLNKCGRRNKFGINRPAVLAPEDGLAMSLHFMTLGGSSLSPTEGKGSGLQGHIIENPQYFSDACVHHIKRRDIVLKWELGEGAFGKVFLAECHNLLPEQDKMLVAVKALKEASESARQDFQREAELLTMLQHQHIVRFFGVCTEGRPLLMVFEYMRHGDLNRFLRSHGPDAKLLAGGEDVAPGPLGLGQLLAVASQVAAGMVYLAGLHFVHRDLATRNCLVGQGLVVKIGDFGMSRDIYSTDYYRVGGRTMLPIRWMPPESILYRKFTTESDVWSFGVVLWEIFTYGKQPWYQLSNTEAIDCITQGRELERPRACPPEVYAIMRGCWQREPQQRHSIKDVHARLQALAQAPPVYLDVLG", "assay": "TRKA (NTRK1) enzyme Z'-LYTE assay", "assay_type": "biochemical", "details": "arithmetic mean of count n; test compound 1 uM, ATP 1 mM", "protocol": "Tropomyosin Receptor Kinase a (TRKA) Activity, % Inhibition\nTRKA, also known as neurotrophic tyrosine kinase receptor type 1 (NTKR1) activity was determined by measuring the effect of a test compound on the activity against the NTRK1 enzyme using the ThermoFisher Z'-LYTE Assay fluorescence-based coupled enzyme format (www.thermofisher.com/selectscreen). […] The resulting effect value for the tested compound was compared to the assay controls to determine the % inhibition (%)."}}}
{"smiles": "C[C@@H](C(=O)N(C)c1cc(C#N)c2[nH]c(-c3n[nH]c4c3C[C@@H]3C[C@]3(C)C4)nc2c1)C1CCOCC1", "note": "[Example 55, (R)—N-(7-cyano-2-((4aS,5aR)-5a-methyl-1,4,4a,5,5a,6-hexahydrocyclopropa[f]indazol-3-yl)-1H-benzo[d]imidazol-5-yl)-N-methyl-2-(tetrahydro-2H-pyran-4-yl)propanamide]", "values": [{"measurement": "IC50", "setting": "[1]", "result": 41, "unit": "nM"}, {"measurement": "inhibition at 1 µM", "setting": "[2]", "result": 89, "unit": "%"}]}
